One test deals with T1, SMARCA2-HiBiT (Homo sapiens, UniProt P51531).
T1 construct: SMARCA2-HiBiT knock-in Hela monoclonal cell (CS302366); host or cells: HeLa monoclonal knock-in line (CRISPR HiBiT knock-in at the endogenous locus, heterozygous)
The test is described as follows: SMARCA2 HiBiT degradation assay in HeLa cells. It counts as cell-based. Conditions: 18 hours incubation; for DC50: read-out: HeLa_HiBit-SM2 DC50; for Dmax: HeLa, read-out: HeLa-HiBit-SM2 Dmax (%). An outline of the steps: (§1)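 HeLa monoclonal lines with heterozygous HiBiT knock-in were seeded at 2500 cells/well in EMEM with 10% FBS and treated with compound for 18 h at 37 °C. Remaining tagged protein was measured by Nano-Glo HiBiT lytic luminescence after 30–60 min at RT, and values came from curve fitting.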
In general terms: HiBiT is a short tag that completes a luciferase, so light tracks the accessible tagged protein.

The target of another test is T2, SMARCA4-HiBiT (Homo sapiens, UniProt P51532).
T2 construct: SMARCA4-HiBiT knock-in Hela monoclonal cell (CS3023226); host or cells: HeLa monoclonal knock-in line (CRISPR HiBiT knock-in at the endogenous locus, heterozygous)
T2 sequence (P51532 whole entry): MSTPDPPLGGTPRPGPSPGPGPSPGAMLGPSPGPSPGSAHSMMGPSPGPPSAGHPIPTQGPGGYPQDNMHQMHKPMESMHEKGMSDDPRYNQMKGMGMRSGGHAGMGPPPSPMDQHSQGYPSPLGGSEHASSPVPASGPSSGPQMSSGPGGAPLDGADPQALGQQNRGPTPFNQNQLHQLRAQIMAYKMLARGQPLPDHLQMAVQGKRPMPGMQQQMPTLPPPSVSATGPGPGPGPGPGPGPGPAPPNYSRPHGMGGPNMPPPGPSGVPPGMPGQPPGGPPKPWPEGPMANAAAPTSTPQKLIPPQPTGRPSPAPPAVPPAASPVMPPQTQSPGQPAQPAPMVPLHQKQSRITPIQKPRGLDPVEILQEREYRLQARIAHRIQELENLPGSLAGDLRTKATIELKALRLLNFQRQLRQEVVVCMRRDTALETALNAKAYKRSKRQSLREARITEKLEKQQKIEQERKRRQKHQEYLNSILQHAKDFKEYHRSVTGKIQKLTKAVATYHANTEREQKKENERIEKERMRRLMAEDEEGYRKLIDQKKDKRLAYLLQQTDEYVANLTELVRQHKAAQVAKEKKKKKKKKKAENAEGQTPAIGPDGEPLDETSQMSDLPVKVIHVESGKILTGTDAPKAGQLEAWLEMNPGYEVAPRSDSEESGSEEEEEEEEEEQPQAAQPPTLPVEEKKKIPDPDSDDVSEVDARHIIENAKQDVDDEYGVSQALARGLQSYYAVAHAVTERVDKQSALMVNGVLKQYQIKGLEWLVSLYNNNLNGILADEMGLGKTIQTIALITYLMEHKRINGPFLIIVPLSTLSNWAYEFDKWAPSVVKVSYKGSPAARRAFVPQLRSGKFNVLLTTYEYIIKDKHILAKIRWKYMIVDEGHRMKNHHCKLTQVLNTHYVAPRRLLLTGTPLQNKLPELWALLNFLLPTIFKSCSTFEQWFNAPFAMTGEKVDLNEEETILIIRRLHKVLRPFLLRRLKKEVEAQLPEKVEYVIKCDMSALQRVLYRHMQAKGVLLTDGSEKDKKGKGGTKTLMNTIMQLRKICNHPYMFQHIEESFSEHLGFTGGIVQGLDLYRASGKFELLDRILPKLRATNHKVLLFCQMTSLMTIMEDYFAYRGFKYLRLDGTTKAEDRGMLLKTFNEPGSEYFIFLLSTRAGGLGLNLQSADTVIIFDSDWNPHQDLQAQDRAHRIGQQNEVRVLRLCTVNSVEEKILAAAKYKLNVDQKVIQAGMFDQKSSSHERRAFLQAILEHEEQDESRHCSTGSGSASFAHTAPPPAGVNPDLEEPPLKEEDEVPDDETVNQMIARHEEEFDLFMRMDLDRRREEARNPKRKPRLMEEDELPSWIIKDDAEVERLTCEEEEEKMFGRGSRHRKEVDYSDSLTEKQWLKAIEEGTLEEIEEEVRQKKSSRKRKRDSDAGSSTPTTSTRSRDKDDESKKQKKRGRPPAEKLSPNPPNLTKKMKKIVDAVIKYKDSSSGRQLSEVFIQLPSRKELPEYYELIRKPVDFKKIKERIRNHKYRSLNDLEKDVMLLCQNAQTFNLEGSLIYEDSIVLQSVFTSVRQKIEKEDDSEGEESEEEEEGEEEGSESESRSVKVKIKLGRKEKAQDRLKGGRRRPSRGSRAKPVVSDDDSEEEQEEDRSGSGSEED
The test is described as follows: SMARCA4 HiBiT degradation assay in HeLa cells. It is filed as cell-based. The settings on record: 18 hours incubation; for DC50: read-out: HeLa-HiBit-SM4 DC50; for Dmax: HeLa, read-out: HeLa-HiBit-SM4 Dmax (%). An outline of the steps:
as §1

The results in this text go back to US12448389B2, “BRM targeting compounds and associated methods of use” (Prelude Therapeutics Incorporated, priority 2020, dated 2025).

As usually defined, the DC50 is the concentration giving 50% degradation. As a reminder, the Dmax is the largest share of the target that was removed.

Some results are limits rather than exact numbers.

T1 sequence (P51531 whole entry): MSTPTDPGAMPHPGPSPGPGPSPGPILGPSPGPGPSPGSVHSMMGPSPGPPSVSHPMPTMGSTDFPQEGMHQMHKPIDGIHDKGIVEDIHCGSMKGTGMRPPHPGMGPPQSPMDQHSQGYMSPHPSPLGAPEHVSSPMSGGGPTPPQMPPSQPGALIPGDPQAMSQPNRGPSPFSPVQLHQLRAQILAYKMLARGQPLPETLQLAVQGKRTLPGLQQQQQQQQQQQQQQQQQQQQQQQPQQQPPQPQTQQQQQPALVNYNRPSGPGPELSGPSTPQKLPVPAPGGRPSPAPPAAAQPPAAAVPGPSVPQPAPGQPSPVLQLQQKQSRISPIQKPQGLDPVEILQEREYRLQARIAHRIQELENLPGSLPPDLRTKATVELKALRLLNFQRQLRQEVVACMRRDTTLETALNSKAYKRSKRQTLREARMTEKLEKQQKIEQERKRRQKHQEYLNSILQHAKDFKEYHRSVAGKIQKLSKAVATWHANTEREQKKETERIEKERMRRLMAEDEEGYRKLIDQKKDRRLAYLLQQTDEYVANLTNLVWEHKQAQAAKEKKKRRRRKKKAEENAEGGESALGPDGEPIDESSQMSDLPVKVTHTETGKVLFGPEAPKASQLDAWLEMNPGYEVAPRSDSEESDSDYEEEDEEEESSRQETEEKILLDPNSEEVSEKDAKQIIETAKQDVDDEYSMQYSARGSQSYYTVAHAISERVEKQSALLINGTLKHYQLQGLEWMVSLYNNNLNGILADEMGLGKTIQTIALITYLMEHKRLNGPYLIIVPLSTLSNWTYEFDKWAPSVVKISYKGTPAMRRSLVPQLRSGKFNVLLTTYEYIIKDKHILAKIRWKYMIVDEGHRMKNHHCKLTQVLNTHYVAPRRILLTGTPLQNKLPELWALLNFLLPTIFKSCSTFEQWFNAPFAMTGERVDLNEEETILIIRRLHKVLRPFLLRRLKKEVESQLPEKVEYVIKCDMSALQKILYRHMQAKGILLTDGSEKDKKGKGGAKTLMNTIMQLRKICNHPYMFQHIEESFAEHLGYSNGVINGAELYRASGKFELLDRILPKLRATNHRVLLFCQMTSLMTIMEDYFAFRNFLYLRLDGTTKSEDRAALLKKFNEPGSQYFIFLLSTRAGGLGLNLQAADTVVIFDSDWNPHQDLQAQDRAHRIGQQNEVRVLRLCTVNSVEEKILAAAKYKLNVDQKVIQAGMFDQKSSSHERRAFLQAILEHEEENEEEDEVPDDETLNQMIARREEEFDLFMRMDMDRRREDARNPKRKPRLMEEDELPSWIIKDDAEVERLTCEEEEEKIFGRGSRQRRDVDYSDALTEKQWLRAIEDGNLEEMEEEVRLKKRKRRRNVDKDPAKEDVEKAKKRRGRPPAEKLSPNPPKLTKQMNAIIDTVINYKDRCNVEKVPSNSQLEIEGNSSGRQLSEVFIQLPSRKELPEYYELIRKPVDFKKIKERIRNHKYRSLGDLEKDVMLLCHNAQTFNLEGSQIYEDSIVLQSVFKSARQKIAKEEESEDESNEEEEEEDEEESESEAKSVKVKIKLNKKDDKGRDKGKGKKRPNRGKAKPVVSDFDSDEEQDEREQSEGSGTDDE

On to `O=C1CCC(N2C(=O)c3ccc(N4CCC5(CN6CCC(CN7CCN8c9cc(-c%10ccccc%10O)nnc9NC[C@H]8C7)CC6)CC5C4)cc3C2=O)C(=O)N1` (stereo partly drawn) [Example 189, 2-(2,6-dioxopiperidin-3-yl)-5-[6-[[4-[[(10S)-4-(2-hydroxyphenyl)-1,5,6,8,12-pentazatricyclo[8.4.0.02,7]tetradeca-2(7),3,5-trien-12-yl]methyl]piperidin-1-yl]methyl]-3-azabicyclo[4.1.0]heptan-3-yl]isoindole-1,3-dione], for which the DC50 on SMARCA2-HiBiT and at SMARCA4-HiBiT was below 10 nM throughout. Also, the Dmax at SMARCA2-HiBiT and at SMARCA4-HiBiT was 75 to 85% in each case.
`O=C1CCC(N2C(=O)c3ccc(N4C[C@H]5CC(N6CCC(CN7CCN8c9cc(-c%10ccccc%10O)nnc9NC[C@H]8C7)CC6)[C@H]5C4)cc3C2=O)C(=O)N1` (stereo partly drawn) [Example 190, 2-(2,6-dioxopiperidin-3-yl)-5-[(1S,5R)-6-[4-[[(10S)-4-(2-hydroxyphenyl)-1,5,6,8,12-pentazatricyclo[8.4.0.02,7]tetradeca-2(7),3,5-trien-12-yl]methyl]piperidin-1-yl]-3-azabicyclo[3.2.0]heptan-3-yl]isoindole-1,3-dione]: the DC50 on SMARCA2-HiBiT and at SMARCA4-HiBiT was below 10 nM in each case. Moreover, the greatest degradation seen (Dmax) at SMARCA2-HiBiT and at SMARCA4-HiBiT was 75 to 85% in each case.
Take `O=C1CCC(N2C(=O)c3ccc(N4CC(CN5CCC(CN6CCN7c8cc(-c9ccccc9O)nnc8NC[C@H]7C6)CC5)C(F)(F)C4)cc3C2=O)C(=O)N1` (stereo partly drawn) [Example 191, 5-[3,3-difluoro-4-[[4-[[(10S)-4-(2-hydroxyphenyl)-1,5,6,8,12-pentazatricyclo[8.4.0.02,7]tetradeca-2(7),3,5-trien-12-yl]methyl]piperidin-1-yl]methyl]pyrrolidin-1-yl]-2-(2,6-dioxopiperidin-3-yl)isoindole-1,3-dione]: the DC50 at SMARCA2-HiBiT is below 10 nM; at SMARCA4-HiBiT it was 10 to 100 nM. The maximal degradation (Dmax) on SMARCA2-HiBiT was in the range of 50 to 75%; on SMARCA4-HiBiT it was 75 to 85%.
Turning to `O=C1CCC(N2C(=O)c3ccc(N4CC[C@H](CN5C[C@@H]6[C@H](C5)[C@H]6CN5CCN6c7cc(-c8ccccc8O)nnc7NC[C@H]6C5)[C@@H](F)C4)cc3C2=O)C(=O)N1` (stereo partly drawn) [Example 193, 2-(2,6-dioxopiperidin-3-yl)-5-[(3R,4R)-3-fluoro-4-[[(1S,5R)-6-[[(10S)-4-(2-hydroxyphenyl)-1,5,6,8,12-pentazatricyclo[8.4.0.02,7]tetradeca-2(7),3,5-trien-12-yl]methyl]-3-azabicyclo [3.1.0]hexan-3-yl]methyl]piperidin-1-yl]isoindole-1,3-dione], at SMARCA2-HiBiT, the DC50 is below 10 nM and the Dmax was in the range of 75 to 85%. Further, on SMARCA4-HiBiT, the “HeLa-HiBit-SM4 Dmax (%)” value was “C (C=50%<Dmax<=75%)” and the DC50 was in the range of 10 to 100 nM.
Consider `O=C1CCC(N2C(=O)c3ccc(N4CC[C@H](CN5C[C@@H]6[C@H](C5)[C@H]6CN5CCN6c7cc(-c8ccccc8O)nnc7NC[C@H]6C5)[C@@H](F)C4)cc3C2=O)C(=O)N1` (stereo partly drawn) [Example 194, 2-(2,6-dioxopiperidin-3-yl)-5-[(3R,4R)-3-fluoro-4-[[(1S,5R)-6-[[(10S)-4-(2-hydroxyphenyl)-1,5,6,8,12-pentazatricyclo[8.4.0.02,7]tetradeca-2(7),3,5-trien-12-yl]methyl]-3-azabicyclo[3.1.0]hexan-3-yl]methyl]piperidin-1-yl]isoindole-1,3-dione], for which, on SMARCA2-HiBiT, the “HeLa-HiBit-SM2 Dmax (%)” value was “A (A=Dmax>85%)” and the DC50 is below 10 nM. Also, at SMARCA4-HiBiT, the “HeLa-HiBit-SM4 Dmax (%)” value was “B (B=75%<Dmax<=85%)” and the DC50 was below 10 nM.
Consider `O=C1CCC(N2C(=O)c3ccc(N4CCC(CN5CCN(C(=O)N6CCN7c8cc(-c9ccccc9O)nnc8NC[C@H]7C6)CC5)C(F)(F)C4)cc3C2=O)C(=O)N1` (stereo partly drawn) [Example 195, 5-[3,3-difluoro-4-[[4-[(10S)-4-(2-hydroxyphenyl)-1,5,6,8,12-pentazatricyclo[8.4.0.02,7]tetradeca-2(7),3,5-trien-12-carbonyl]piperazin-1-yl]methyl]piperidin-1-yl]-2-(2,6-dioxopiperidin-3-yl) isoindole-1,3-dione], for which, on SMARCA2-HiBiT, the DC50 is below 10 nM and the Dmax was 50 to 75%. At SMARCA4-HiBiT, the DC50 is 10 to 100 nM and the greatest degradation seen (Dmax) fell in the range of 50 to 75%.
